According to article PMC3267046 (Structure(London, England:1993), 2012):

Key:
Format in all cases: binding
[1] = target: T1, Ddn (deazaflavin-dependent nitroreductase, Rv3547) (Mycobacterium tuberculosis, UniProt P9WP15); experiment: intrinsic tryptophan fluorescence quenching; also steady-state kinetics (KM […]); set-up: full-length Ddn / MBP-Ddn fusion
nfa33440 = target: T2, nfa33440 (Nocardia farcinica, UniProt Q5YUF0); experiment: cocrystal structure, […] Å; HSQC NMR
T2 construct: gene NFA_33440; full-length (density starting at residue 6)
T2 sequence (Q5YUF0 1-147): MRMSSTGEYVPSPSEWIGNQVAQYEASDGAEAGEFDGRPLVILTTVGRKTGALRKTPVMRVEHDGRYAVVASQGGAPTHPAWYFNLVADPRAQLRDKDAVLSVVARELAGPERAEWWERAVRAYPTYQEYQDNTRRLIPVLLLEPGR

nfa18080 = target: T3, nfa18080 (Nocardia farcinica, UniProt Q5YYT7); experiment: crystal structure, […] Å
T3 construct: gene NFA_18080; full-length (density starts at residue 5)
T3 sequence (Q5YYT7 1-144): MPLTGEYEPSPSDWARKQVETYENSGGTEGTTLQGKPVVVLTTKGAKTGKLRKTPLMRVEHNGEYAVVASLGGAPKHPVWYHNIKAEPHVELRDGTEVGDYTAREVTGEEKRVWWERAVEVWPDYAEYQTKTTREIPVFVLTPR

[2] = target: T1, Ddn (deazaflavin-dependent nitroreductase, Rv3547); experiment: cocrystal structures (Holo-1 […] Å, Holo-2 […] Å); Trp fluorescence quenching Kd; HSQC NMR; set-up: […]; full-length Ddn / MBP-Ddn fusion (Kd)

T1 sequence (P9WP15 whole entry, the tested form may be a part): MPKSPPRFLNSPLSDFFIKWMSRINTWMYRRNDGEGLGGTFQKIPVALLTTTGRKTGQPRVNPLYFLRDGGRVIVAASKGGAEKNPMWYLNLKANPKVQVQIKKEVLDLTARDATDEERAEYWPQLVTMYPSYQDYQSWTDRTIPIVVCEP

SMILES	Kd [1]	cocrystal structure, 1.80 Å; HSQC NMR (nfa33440)	crystal structure, 1.50 Å (nfa18080)	Kd [2]
O=[N+]([O-])c1cn2c(n1)OC[C@@H](OCc1ccc(OC(F)(F)F)cc1)C2 [PA-824, (6S)-2-nitro-6-[4-(trifluoromethoxy)benzyl]oxy-6,7-dihydro-5H-imidazo[2,1-b][1,3]oxazine]	31 µM			
C[C@H](OP(=O)(O)OC[C@@H](O)[C@@H](O)[C@@H](O)Cn1c2nc(=O)[nH]c(=O)c-2cc2ccc(O)cc21)C(=O)N[C@@H](CCC(=O)N[C@@H](CCC(=O)O)C(=O)O)C(=O)O [F420]		a cocrystal of nfa33440 with F420 confirmed that the overall structure and coenzyme binding are very similar	nfa18080 from N. farcinica, was solved by X-ray crystallography in the presence of F420	1 µM
